Data published in patent publication US12419861B2, “Method for preventing and/or treating chronic traumatic encephalopathy-i” (EUSTRALIS PHARMACEUTICALS LIMITED (trading as Pressura …, priority 2013, dated 2025).

System: tau phosphorylation
Assay: Tau phosphorylation after concussive injury in the rat (rodent model of concussion, FIG. 3)
Format: in vivo
Conditions: NK1 receptor antagonist administered at 30 min after induction of injury, assessed at 3 day time point, compared with injured untreated animals
Text: Note that concussive injury in the rat causes extensive tau phosphorylation (C,D) by 3 days after the concussive event compared to non-injured animals (A,B). […] Concussion results in perivascular substance P release Having established that hyperphosphorylated tau accumulates perivascularly following concussive injury, we used an animal model of concussion to investigate whether concussion causes perivascular release of substance P. We developed a rodent model of concussion to replicate the concussive event (Donkin et al., 2004, 7th International Neurotrauma Symposium, pp 75-78, Medimond Publishers, Bologna, Italy) and subsequently determined whether substance P was released after such an event. There was a clear increase in brain perivascular substance P immunoreactivity after the concussive event (FIG. 2). […] Administration of a NK1 receptor antagonist prevents tau phosphorylation Having shown that mechanical injury causes release of substance P after concussive injury, we then investigated whether a substance P NK1 receptor antagonist reduces tau hyperphosphorlation after concussive injury. […] Note that concussive injury in the rat causes extensive tau phosphorylation (C,D) by 3 days after the concussive event compared to non-injured animals (A,B). […] Thus, administration of an NK1 receptor antagonist prevents tau hyperphosphorylation and thus prevents the development of CTE.

SMILES: CC(=O)N[C@@H](Cc1c[nH]c2ccccc12)C(=O)O [n-acetyl-L-tryptophan, N-acetyl-L-tryptophan]
- effect on tau phosphorylation after concussive injury: almost complete inhibition of tau phosphorylation
